The text below walks through data of patent US20250222114A1, “GLYCOCONJUGATED DRUG FOR THE TREATMENT OF HEPATOCELLULAR CARCINOMA” (priority 2021, published 2025).

pIC50: −log10 of the molar value. Several values for one entry are separate records, joined by “and”; a condition that tells them apart may be missing. Identical values can stand only once. Some results are limits rather than exact numbers.

Series [1] has as its system CFSC-2G (Rat hepatic stellate cell line). Put plainly: Cell viability, CFSC-2G. The settings on record: CFSC-2G cells. Type of series: cell-based. The protocol:
(§1) In order to evaluate the therapeutic efficacy and potential cytotoxicity of the glycoconjugated drug of the invention for the treatment of HCC, cell viability assays were carried out in different cell lines. Chemiograms were performed using increasing doses of the compound 4-MU as well as the glycosylated compound 4MUR (0-2000 μM). Cell viability was measured by using the CellTiter kit (Promega Corporation). Proliferation was measured through a tritiated thymidine incorporation assay, by incubating the cells for 48 h with either one of the compounds (4MU/4MUR) or culture medium (RPMI) in the presence of 3H-thymidine (Migliore-LaClaustra).

In series [2] the test system is IHH (human hepatocytes cell line). Put plainly: Cell viability, IHH. The settings on record: IHH cells. The series is classed as cell-based. The protocol: as §1
A further series concerns Hepa129 cells. Put plainly: Apoptosis by acridine orange/ethidium bromide staining, Hepa129. The series is classed as cell-based, murine. The settings on record: 48h; for induction of apoptosis: Hepa129, 0.1 mM; for cells showing death by apoptosis: Hepa129, 1 mM. The protocol:
On the other hand, it was examined if growth inhibition by 4MUR was due to induction of apoptosis. To this end, cells were stained with an orange solution of acridine-ethidium bromide (Acridine Orange (NA)/Ethidium Bromide (BrEt) staining) and were then visualized by fluorescence microscopy to analyze their morphological characteristics. Briefly, after 48h of treatment, the cells were incubated with a mixture of NA/BrEt (1 ug/ml) and were then observed under a fluorescence microscope (Nikon). Viable cells are permeable to NA and are stained green. Cells with an altered plasma membrane allow BrEt to enter, which displaces NA, staining the cell orange. The percentage of viable or apoptotic cells was counted for each treatment.

Series [3] concerns HAS3. Put plainly: HAS3 mRNA expression (RT-qPCR), Huh7. The series is classed as cell-based, human. The settings on record: Huh7 cells. The protocol: (§2) Since HAS mRNA levels often correspond to the activity of hyaluronan synthesis, the effect of 4MUR on HAS2 and HAS3 expression was assessed. To this end, cells with a concentration of 100,000 cells/ml were cultured on 6-well plates and treated with 4MUR (500 μM) for 24 h. Total RNA was extracted using the TriReagent (Sigma Aldrich) according to the manufacture's protocol. RNA was quantified at 260 nm in a DU®730 spectrophotometer (Beckman Coulter, Fullerton, CA, USA). The RNA purity was evaluated according to MIQE guidelines by measuring the ratio A260/A280. […] RT-qPCR for HAS2, HAS3 genes was performed using iQ SYBR Green Supermix protocol (Bio-Rad Laboratories, Milan, Italy). Each PCR amplification was carried out following manufactures instructions (iQ SYBR Green Supermix-Bio-Rad) in a Bio-Rad iQ5 real-time PCR detection system (iCycler IQ5 software, version 3.1; Bio-Rad) Expression was normalized to actin with two reference genes.

The subject of the next series is HAS2. Put plainly: HAS2 mRNA expression (RT-qPCR), CFSC-2G. The series is classed as cell-based, rat. The settings on record: CFSC-2G cells. As to the method: as §2
In general terms: Quantitative PCR measures a nucleic acid by following its amplification.

The test system of series [4] is HAS3. Put plainly: HAS3 mRNA expression (RT-qPCR), CFSC-2G. Type of series: cell-based, rat. As to conditions: CFSC-2G cells. As to the method:
as §2

The subject of the next series is HA in Hepa129 cells. Put plainly: HA content by flow cytometry, Hepa129. The series is classed as cell-based, murine. The settings on record: 48 h. In general terms: A flow cytometer gives signals particle by particle.
Series [5] deals with orthotopic Hepa129 tumors. Put plainly: Orthotopic hepatocellular carcinoma model associated with advanced fibrosis induced by TAA. Type of series: in vivo, C3H/He mice. The settings on record: for tumor volume: 20 mg/Kg i.p. 3 times a week, day 21 post Hepa129 inoculation; for animals in which tumors were not detected macroscopically: day 21 post-Hepa129; for animal survival: Day 20, FIG. 12C; for fibrosis degree measured by collagen deposits (Sirius red): liver sections. The protocol:
To assess the in vivo antitumoral efficacy of 4MUR, an orthotopic tumor model associated with advanced fibrosis induced by TAA was established
C3H/He mice were intraperitoneally (i.p.) treated with 20 mg/kg thioacetamide (TAA) 3 times a week, for 4 weeks, in order to induce liver fibrosis. On day 28, mice were anesthetized and underwent surgery and orthotopic tumors were established by subcapsular intrahepatic inoculation of 1.25×10^5 Hepa129 cells into the left lobe of the liver (Day 0).
Between day 5 and day 7 post-administration of the cells, animals were again subjected to surgery for observing tumor development. Mice were divided into 3 groups (n=5) and each group received: (1) Saline solution (control); (2) 4MU dissolved in water, at a dose of 20 mg/Kg; (3) 4MUR dissolved in water at a dose of 20 mg/Kg. Intraperitoneal administration for different groups began on day 5 and was performed 3 times a week, until the end of the experiment on day 21 post Hepa129 inoculation. On day 21, animals were sacrificed, mice weight was recorded and ascites grade (mild, moderated, severe, and hemorrhagic), as well as tumor volume (mm^3), was calculated by the formula π/6×larger diameter×(smaller diameter)^2, by caliber measurement.
The 4MUR treatment on liver fibrogenesis was evaluated in the animal model. […] To assess the extent of liver fibrosis, formalin-fixed liver samples were embedded in paraffin and 5 μm sections were stained by Sirius Red for detection of fibrillar collagen. Quantitative analysis of Sirius red stained area was performed by computerized morphometric analysis. About 50 light microscope images (100× magnification) per specimen were captured and analyzed using the color threshold detection system developed in ImageJ software (NIH, USA). The results were expressed as percentage of positive area. Collagen deposition was quantified by morphometric analysis and densitometry.
To further understand the 4MUR effect on HCC, HA expression was evaluated in liver tissue sections of mice from the different groups by staining with an HA-binding protein (HA-BP). Negative controls were stained with bHA-BP and pretreated with 100 U/ml Streptomyces hyaluronidase (#385931, Calbiochem) at 37° C. for 30 min. Peroxidase complex (Sigma) 1:10 in PBS was used for developing. The signal was detected by 0.1% diaminobenzidine (Sigma-Aldrich, Buenos Aires, Argentina), 4% glucose, 0.08% ClNH4, 5% nickel ammonium sulfate in 0.2 M AcNa and 0.05% H2O2.

The nature of the next series: Toxicity study in mice. Type of series: in vivo, C3Hj mice. As to conditions: for animal body weight: more than 20 days. As to the method:
In order to evaluate the toxicity of the compound of the invention, an in vivo assay with mice was carried out. Animals treated with 4MUR were kept healthy during all the experimental protocol.
Briefly, C3Hj mice untreated (n=4) or treated with 4MU (n=4) or 4MUR (n=5) were used to assess its toxicology profile. Mice weight was supervised for more than 20 days. At the end of the experiments, healthy mice or mice receiving 4MU/4MUR were sacrificed to collect liver, spleen, heart, lung, and kidney samples. Tissue sections from liver, spleen, heart, and lungs were paraffin-embedded and H&E staining procedure was performed using standard protocols.

As usually defined, the pIC50 is the IC50 on a negative log10 scale, so that one unit is a factor of ten. The molecule `Cc1cc(=O)oc2cc(O)ccc12` [4MU, 4-Methylumbelliferone, reference compound] gave a pIC50 in series [1] (Rattus norvegicus) of 2.94. In series [2] (Homo sapiens, Hepatocyte), this molecule had a pIC50 of 3.31. Also, in the series on Hepa129 cells, the induction of apoptosis result is “resistant” and the “cells showing death by apoptosis” value is listed as 60%. Moreover, in the series with HAS3 [3], the HAS3 up-regulation entry is recorded as “around 3.5 fold”. The HAS2 upregulation entry in the series on HAS2 is given as “around 5 fold”. In the series with HAS3 [4], the HAS3 expression upregulation was 4.2 fold. The HA contents result with HA in Hepa129 cells is “significantly decreased”. Also, in series [5], the tumor volume was 243.8±94.0 mm^3; the animal survival was 66% and 67%. Besides, in [5] (20 mg/Kg i.p.), the “animals in which tumors were not detected macroscopically” value stood at 20% and the “fibrosis degree measured by collagen deposits (Sirius red)” value is reported as 0.53±0.04. Besides, in the series “Toxicity study in mice”, the “histology (H&E) of liver, kidney, lungs, spleen, heart” value is listed as “no induced tissue damage” and the animal body weight result is listed as “no significant changes”.

Take `Cc1cc(=O)oc2cc(O[C@@H]3O[C@H](CO[C@@H]4O[C@@H](C)[C@H](O)[C@@H](O)[C@H]4O)[C@@H](O)[C@H](O)[C@H]3O)ccc12` [4MUR, 4-methylumbelliferyl-rutinoside]: in series [1], the pIC50 is less than 2.70 and the “increase of IC50 values of 4MUR compared to 4MU” value is 25.8 fold. In series [2], the pIC50 was less than 2.70 and the “increase of IC50 values of 4MUR compared to 4MU” value was 6.2 fold. Moreover, in the series with Hepa129 cells, the induction of apoptosis result is given as “significantly induced apoptosis” and the “cells showing death by apoptosis” value was found to be 100%. In the series on HAS3 [3], the “expression of HAS3” value is on record as “significantly reduced”. The HAS2 expression entry with HAS2 is recorded as “did not affect”. Further, the “HAS3 expression down regulation” value in the series with HAS3 [4] is on record as 4.5 fold. Also, the HA contents entry in the series with HA in Hepa129 cells is listed as “significantly decreased”. In addition, in series [5] (20 mg/Kg i.p.), the “HA expression in liver tissue (HA-BP staining)” value was “remarkable reduction”, the “animals in which tumors were not detected macroscopically” value amounted to 60% and the “fibrosis degree measured by collagen deposits (Sirius red)” value is on record as 0.21±0.02. In series [5], this molecule returned a tumor volume of 113.5±77.8 mm^3 and an animal survival of 100%. For the same molecule, the “amount of ascitic fluid” value in [5] (compared with untreated mice and 4MU) was “significantly reduced”. Further, in series [5] (i.p. 20 mg/kg/day), the “efficacy against hepatocellular carcinoma” value is “efficient”. In “Toxicity study in mice”, the “health of animals during the experimental protocol” value is “kept healthy”; the “histology (H&E) of liver, kidney, lungs, spleen, heart” value is listed as “no induced tissue damage”; the animal body weight entry is on record as “no significant changes”.
